Measured values from patent US20080153792A1, “Drug Identification and Treatment Method” (priority 2006, published 2008).
pIC50: −log10 of the molar value.

How the values were obtained:
[1] = tested on: osteoblasts and osteocytes in murine vertebral bone; assay: osteoblast and osteocyte apoptosis in ovariectomized mice (TUNEL); type: in vivo, mouse; conditions: ovariectomized Swiss Webster mice
Text: The degree of apoptosis of osteoblasts and osteocytes in murine vertebral bone as a function of estrogen deficiency was examined. Swiss Webster mice (four months old) were ovariectomized. Twenty-eight days later, the animals were sacrificed, vertebrae were isolated, fixed and embedded, and then undecalcified in methacrylate.

[2] = tested on: CD4^+CD25^+ T regulatory cells; assay: CD4+CD25+ T regulatory cells after adoptive transfer of CD4+CD25- T cells; type: in vivo, mouse; conditions: 1 mg/animal/day s.c. for 14 days
Experimental: Inhibition of the generation of CD4^+CD25^+ T regulatory cells or their activity in vivo. Purified CD4^+CD25^− T cells (5×10^6 cells) from congenic B6.5JL mice (CD45.1) per group were adoptively transferred into each of five B6 mice (CD45.2). The purified CD4^+CD25^− T cells were obtained by fluorescence activated cell sorting (FACS) of the donor cells at least twice. Vehicle (0.1% carboxymethylcellulose, 0.9% saline, 2% tween 80, 0.05% phenol) or 16α-bromoepiandrosterone in vehicle (1 mg/animal/day in 100 μL vehicle) was injected subcutaneously before transfer of the cells from the CD45.1 donor animals and the injections were continued daily for 14 days. Thymus, lymph nodes and spleens were collected from the animals at day 15. Samples of thymus, lymph node and spleen were obtained from individuals, and the cells were labeled with fluorescent antibody that bound to CD4, CD25, CD103 or Foxp3. The cells were then analyzed by flow cytometry to enumerate the numbers of the various cell types. The remainder of cells from lymph nodes and spleen of each treatment group were pooled, pre-enriched for CD4^+CD25^+ cells and then analyzed for CD4^+CD25^+ that arose from the host (endogenous CD45.2 cells) and from donor cells (CD45.1 cells that converted from the CD4^+CD25^− donor phenotype to the CD4^+CD25^+ phenotype after residing in vivo for 15 days). The cells were analyzed by cell sorter. To test for regulatory function, varying numbers of purified converted CD45.1 or endogenous CD45.2 CD4^+CD25^+ cells were co-cultured with 2000 CD4^+CD25^− responder cells, 1×10^5 irradiated spleen cells as antigen presenting cells, and […] of anti-CD3 antibody. Fresh CD4^+CD25^+ cells were used as controls. Proliferation was determined by measurement of ^3H-thymidine uptake 4 days after initiation of culture.

[3] = tested on: γ-interferon production by human whole blood; assay: γ-interferon production in human whole blood exposed to LPS; type: cell-based; conditions: LPS 24 hours; 16α-bromoepiandrosterone at 100 ng/mL
Experimental: Anti-inflammation activity in human cells in vitro. […] The amount of γ-interferon was measured in the growth medium when the cells had been incubated in the presence of LPS for 24 hours.

Pseudomonas aeruginosa = assay: clearance of chronic lung infection in CFTR mice; type: in vivo; conditions: 40 mg/kg; day 10; p=<0.04 vs vehicle
Experimental: Clearance of bacteria from lung tissue. The capacity of 16α-bromoepiandrosterone to clear a Pseudomonas aeruginosa infection from lung tissue was shown using a previously published protocol, A. van Heeckeren et al., J. Clin. Invest., 100(11):2810-2815 […]; A. van Heeckeren et al., Am. J. Respir. Crit. Care Med., 161:271-279 2000. The protocol was conducted in CFTR mice, which are used as an animal model for human cystic fibrosis, S. D. Freedman et al., Proc. Natl. Acad. Sci. USA, 96(24):13995-14000 1999; W. Zeng et al., Am. J. Physiol. Cell. Physiol. […] Establishment of chronic P. aeruginosa infection using agarose beads containing bacteria (50 μL containing about 6.1×10^4 CFU/animal) was published earlier, J. R. Starke et al., Pediatr. Res., 22:698-702 1987. Two groups of mice (n=9 for each group) were treated with 40 mg/kg of 16α-bromoepiandrosterone or vehicle (control) and the bacterial burden in the lungs of the animals was determined at 10 days after introduction of the agarose beads into the lung.

[4] = tested on: mice, LPS induced lung injury; assay: lung injury by sublethal LPS to trachea and lungs, BAL cell count; type: in vivo, mouse; conditions: oral gavage 24 h before and 1 h after 100 μg LPS; 48 hours
Experimental: In another assay, the capacity of 16α-bromoepiandrosterone and 3β,16α-dihydroxy-17-oxoandrostane to protect against lung injury induced by exposure to a sublethal amount of LPS in mice was shown. In this assay, the compounds, sterile saline (negative control) or vehicle (vehicle control) were administered to groups of 5 mice by oral gavage at 24 hours before and 1 hour after administration of 100 μg of LPS to the trachea and lungs of animals under light anesthesia. At 48 hours the animals were sacrificed and samples were obtained from the lungs of the animals by bronchiolar alveolar lavage (BAL). The numbers of cells in the BAL fluid were counted, with high numbers of cells showing lung inflammation and damage. In this assay, cells that mediate inflammation and lung damage infiltrate into the lungs in response to the presence of the LPS. In the negative control and vehicle control groups, the BAL fluid contained about 6×10^7 cells/mL. […] Other compounds, e.g., 17α-ethynylandrost-5-ene-3β,7β,17β-triol or 17β-aminoandrost-5-ene-3β-ol, can be characterized in a similar manner.

NF-κB = assay: NF-κB-bla THP-1 β-lactamase reporter assay; type: cell-based, human
[5] = tested on: mice given a lethal amount of LPS; assay: lethal shock protocol, lethal amount of bacterial LPS; type: in vivo, mouse; conditions: for survival 72 hours after LPS: first protocol
Experimental: Treatment of lethal inflammation/shock. Two compounds, 16α-bromoepiandrosterone (3β-hydroxy-16α-bromoandrostane-17-one) and 3β,16α-dihydroxy-17-oxoandrostane, were used in a lethal shock protocol. In one protocol, 3 mg of 16α-bromoepiandrosterone was administered to one group of animals by oral gavage, while another group received 3 mg of 16α-bromoepiandrosterone by subcutaneous injection. A group of control animals received a placebo control. In this protocol, the 16α-bromoepiandrosterone was administered to mice at 24 hours before and at 1 hour after administration of a lethal amount of bacterial lipopolysaccharide (LPS). By the end of the observation period, 72 hours after LPS administration, none of the vehicle treated placebo control animals had survived, while 65% of animals that received 16α-bromoepiandrosterone by oral administration survived. 50% of the animals that received 16α-bromoepiandrosterone by subcutaneous injection survived. Animals that survived for 72 hours all recovered from the LPS exposure.
In a second assay, 16α-bromoepiandrosterone or 3β,16α-dihydroxy-17-oxoandrostane was administered to mice by oral gavage at 24 hours before and 1 hour after administration of a lethal amount of LPS. A vehicle treated group of animals was used as the placebo control.

female SJL mice, EAE = assay: experimental autoimmune encephalomyelitis (EAE), PLP-induced, Example 23; type: in vivo, mouse; conditions: 0.1 mg q.d. po from clinical onset
[6] = tested on: NF-κB in spleen cells of ICR mice; assay: activated NF-κB in spleen cell nuclei after LPS, Example 8; type: in vivo, mouse; conditions: about 40 mg/kg i.p. 24 h before and 1 h after LPS; spleens 1.5 hours after LPS
Experimental: The capacity of selected compounds to treat LPS induced shock/inflammation in mice was examined by a protocol similar to the protocol described above. Five groups of three ICR mice weighing about 30 g were each treated by intraperitoneal injection with 120 μL vehicle (30% sulfobutylether-cyclodextrin in water), androst-5-ene-3α,7β,16α,17β-tetrol in vehicle, androst-5-ene-3β,4β,16α,17β-tetrol in vehicle or 4β-acetoxyandrost-5-ene-3β,16α,17β-triol in vehicle. All drug and vehicle formulations were solutions, not suspensions. The sulfobutylether-cyclodextrin was obtained commercially (Captisol™, www.cyclexinc.com). There were two vehicle control groups one group received vehicle alone and the other received vehicle plus LPS. […] Drug was administered at about 40 mg/kg (1.2 mg drug/animal for each administration of the drugs). Spleens were harvested from the animals at 1.5 hours after injection of LPS and spleen cells were lysed and assayed for activated NF-κB by isolating nuclei from spleen cells and measuring NF-κB from the lysed nuclei. […] The level of activated NF-κB in spleen cells from the animals that were treated with vehicle and no LPS, was essentially the same as the activated NF-κB in spleen cells from drug treated animals.

MG-63 cells = assay: reversal of glucocorticoid effects in MG-63 osteosarcoma cells; type: cell-based, human; conditions: 10 nM compound
[7] = metabolic stability in liver microsomes: human; conditions: 10 min
Experimental: (§1) The protocol was performed as follows. […] (2) Set up samples as follows. […] (4) The internal standard/acetonitrile solution.

[8] = other protocols: degree of sulfation and glucuronidation
[9] = metabolic stability in liver microsomes: mouse; conditions: 10 min
Experimental: as §1

[10] = tested on: CF-1 mice, hemorrhagic shock; assay: hemorrhagic shock and ischemia with abdominal surgery; type: in vivo, mouse; conditions: 2 mg in resuscitation fluid; vehicle control 1/15
Experimental: The effect of compounds on hemorrhagic shock and ischemia was examined in another protocol. CF-1 mice at an age of 6-8 months were anesthetized using methoxyfluorothane and prepared for abdominal surgery. Each mouse was tested for the level of respiration, eye blink response and response to a skin pinch to ensure a level of anesthesia appropriate for surgery. The duration of abdominal surgery was approximately two hours, during which time 35-40% of the animal's blood volume is removed over a […]. The removal of blood in a controlled manner simulates the effect of hemorrhagic shock. A slow intravenous infusion of the removed blood and a 2× volume of resuscitation fluid (lactated Ringers solution) into a central vein was made. The resuscitation fluid was supplemented with either 2 mg dehydroepiandrosterone-3β-sulfate or the excipient as a placebo. The peritoneum and overlying skin were sutured separately. Animals were maintained at 38°-39° C. until recovery is complete. Under these conditions, most of the placebo-treated animals died within 24-48 hours. […] Mesenteric lymph nodes (MLN) were removed and cultured on blood agar plates and the number of CFUs counted following culturing. The liver was removed and the amount malondialdehyde was measured.

C[C@]12CC[C@H]3[C@@H](CCC4=C[C@H](O)CC[C@@H]43)[C@@H]1CC[C@@H]2O [4-estrene-3α,17β-diol]
osteoblast and osteocyte apoptosis [1]: reduce apoptosis

C[C@]12CC[C@H](O)C[C@@H]1CC[C@@H]1[C@@H]2CC[C@]2(C)C(=O)[C@H](Br)C[C@@H]12 [16α-bromoepiandrosterone]
average donor CD45.1 CD4^+CD25^+ cell number in spleens ([2]; day 15, vehicle 1.97×10^5): 0.62×10^5 cells
average endogenous CD45.2 CD4^+CD25^+ cells in the thymus ([2]; day 15, vehicle 3.10×10^5): 1.59×10^5
average endogenous CD45.2 CD4^+CD25^+ cell number in spleens ([2]; day 15, vehicle 9.54×10^6): 5.49×10^6 cells
proportion of endogenous CD45.2 CD4^+CD25^+CD103^+ Treg cells in spleens ([2]; vehicle 13.85%): 13.40%
average of donor CD45.1 CD4^+CD25^+CD103^+ cells of total donor CD4^+CD25^+ cells in spleens ([2]; vehicle 29.06%): 9.63%
production of γ-interferon [3]: Reduced production
bacterial burden in the lungs (Pseudomonas aeruginosa): reduced
cell counts in the BAL fluid [4]: about 4.4×10^7 cells/mL
maximum NF-κB inhibition (NF-κB; this protocol): 100%
survival 72 hours after LPS ([5]; 3 mg by oral gavage 24 h before and 1 h after LPS): 65%
survival 72 hours after LPS ([5]; 3 mg by subcutaneous injection 24 h before and 1 h after LPS): 50%
survival at 72 hours ([5]; second assay, oral gavage 24 h before and 1 h after LPS): 80%

C[C@]12CC[C@H]3[C@@H]([C@@H](O)C=C4C[C@H](O)CC[C@@]43C)[C@@H]1C[C@@H](O)[C@@H]2O [androst-5-ene-3α,7β,16α,17β-tetrol]
course of EAE compared to vehicle-treated mice (female SJL mice, EAE): very similar to that observed in the vehicle-treated mice
decrease of NF-κB activation compared to LPS+vehicle control group [6]: about 50%
osteoprotegerin levels in the presence of 30 nM dexamethasone (MG-63 cells): normal osteoprotegerin levels
parent remaining human microsomes [7]: 100% (10 min)
degree of sulfation and degree of glucuronidation compared to diols [8]: low
parent remaining mouse microsomes [9]: 100% (10 min)

C[C@]12CC[C@H]3[C@@H](CCC4C[C@H](O)[C@@H](O)C[C@@]43C)[C@@H]1C[C@@H](O)[C@@H]2O (stereo partly drawn) [androstane-2β,3α,16α,17β-tetrol]
pIC50 (NF-κB; Homo sapiens, THP-1, read-out: IC50, this protocol): < 5.00
melting point: 260 to 263 °C

C[C@]12CC[C@H](OS(=O)(=O)O)CC1=CC[C@@H]1[C@@H]2CC[C@]2(C)C(=O)CC[C@@H]12 [dehydroepiandrosterone-3β-sulfate]
survival [10]: 15/15
